Experimental data from patent US20240366809A1, “INHIBITOR OF PROSTATE SPECIFIC MEMBRANE ANTIGEN AND PHARMACEUTICAL USE THEREOF” (TIANJIN HENGRUI MEDICINE CO., LTD., priority 2021, published 2024).
Where “and” joins values, the source holds several entries; their conditions need not be identical. Identical values can stand only once. One block for each molecule: values may come before it.

Tests used:
rhPSMA = rhPSMA (Homo sapiens (Human), UniProt Q04609); experiment: Tests for inhibitory activity against PSMA (Test Example 1); type: biochemical; conditions: rhPSMA 50 ng/well, substrate N-Acetyl-Asp-Glu, 37° C. 1 h
Chain of rhPSMA (Q04609 44-750): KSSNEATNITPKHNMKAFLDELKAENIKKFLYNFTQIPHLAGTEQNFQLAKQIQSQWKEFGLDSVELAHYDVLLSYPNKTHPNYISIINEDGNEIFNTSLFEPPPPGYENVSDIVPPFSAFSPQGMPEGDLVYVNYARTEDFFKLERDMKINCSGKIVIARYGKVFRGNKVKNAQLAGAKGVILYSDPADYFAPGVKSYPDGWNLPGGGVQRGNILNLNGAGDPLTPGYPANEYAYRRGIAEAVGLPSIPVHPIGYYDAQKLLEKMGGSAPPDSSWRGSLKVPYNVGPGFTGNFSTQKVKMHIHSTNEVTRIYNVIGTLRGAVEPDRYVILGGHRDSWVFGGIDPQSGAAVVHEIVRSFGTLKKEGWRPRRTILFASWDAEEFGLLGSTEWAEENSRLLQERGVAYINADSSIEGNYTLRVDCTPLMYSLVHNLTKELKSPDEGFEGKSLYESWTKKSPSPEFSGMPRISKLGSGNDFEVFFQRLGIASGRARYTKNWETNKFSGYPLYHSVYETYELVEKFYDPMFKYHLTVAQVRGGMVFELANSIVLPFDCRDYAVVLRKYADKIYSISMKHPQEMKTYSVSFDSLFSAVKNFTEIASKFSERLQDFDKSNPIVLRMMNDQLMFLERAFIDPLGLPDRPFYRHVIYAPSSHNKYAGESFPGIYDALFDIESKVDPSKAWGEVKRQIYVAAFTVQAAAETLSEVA
Protocol: • 1. Multifunctional microplate reader (SPARK, TECAN) • 2. rhPSMA (R&D, 4234-ZN) • 3. N-Acetyl-Asp-Glu (Sigma, A5930) • 4. OPA (Sigma, P0657)
PSMA inhibitors can bind to the enzyme PSMA to prevent the enzyme PSMA from decomposing the substrate N-Acetyl-Asp-Glu. In this experiment, the extent to which the substrate was decomposed and the resulting ultraviolet absorption changes were measured to evaluate the capacities of the PSMA inhibitors to bind to the enzyme PSMA, and the activity of the compounds was evaluated with IC50 values.
Buffer 1 (50 mM HEPES, 0.1 M NaCl, pH 7.5) was used to prepare a 0.4 μg/mL rhPSMA solution and a 40 μM solution of the substrate N-Acetyl-Asp-Glu. rhPSMA was mixed with the small molecules to be tested in a 96-well plate, with a constant rhPSMA content of 50 ng/well maintained. Meanwhile, the small molecules were step-wise diluted to final concentrations of 1 μM, 100 nM, 33.3 nM, 11.1 nM, 3.7 nM, 1.2 nM, 0.41 nM, 0.137 nM, 0.045 nM, and 0 nM. In addition, a positive control was set up using PSMA-617. The rhPSMA-small molecules were taken at 40 μL/well and well mixed with the 40 μM solution of the substrate N-Acetyl-Asp-Glu (40 μL/well). The mixtures were incubated at 37° C. in the dark for 1 h, were heated at 70° C. for 5 min to quench the reactions, and were cooled to room temperature. Buffer 2 (0.2 M NaOH, 0.1% beta-Mercaptoethanol) was used to prepare a 15 mM OPA solution. The OPA solution was added to the reaction systems at 80 μL/well and well mixed, and then the plate was incubated at room temperature for 10 min. The mixtures were taken at 100 μL/well and added to a 96-well Flat Black. With the excitation wavelength set to 330 nm and the emission wavelength to 465 nm, the intensity of signals was measured. IC50 values were obtained from dose-response curves.
The capacities of the compounds of the present disclosure to bind to the enzyme GCPII can be measured through the assay described above.

human organs = experiment: Absorbed doses of radiation, estimates for human organs (OLINDA software); conditions: for radiation dose estimate, Adrenals: human organ: Adrenals; for radiation dose estimate, Brain: human organ: Brain; for radiation dose estimate, Esophagus: human organ: Esophagus; for radiation dose estimate, Eyes: human organ: Eyes; for radiation dose estimate, Gallbladder Wall: human organ: Gallbladder Wall; for radiation dose estimate, Heart Wall: human organ: Heart Wall; for radiation dose estimate, Kidneys: human organ: Kidneys; for radiation dose estimate, Left colon: human organ: Left colon; for radiation dose estimate, Liver: human organ: Liver; for radiation dose estimate, Lungs: human organ: Lungs; for radiation dose estimate, Osteogenic Cells: human organ: Osteogenic Cells; for radiation dose estimate, Pancreas: human organ: Pancreas; for radiation dose estimate, Prostate: human organ: Prostate; for radiation dose estimate, Rectum: human organ: Rectum; for radiation dose estimate, Red Marrow: human organ: Red Marrow; for radiation dose estimate, Right colon: human organ: Right colon; for radiation dose estimate, Salivary Glands: human organ: Salivary Glands; for radiation dose estimate, Small Intestine: human organ: Small Intestine; for radiation dose estimate, Spleen: human organ: Spleen; for radiation dose estimate, Stomach Wall: human organ: Stomach Wall; for radiation dose estimate, Testes: human organ: Testes; for radiation dose estimate, Thymus: human organ: Thymus; for radiation dose estimate, Thyroid: human organ: Thyroid; for radiation dose estimate, Urinary Bladder Wall: human organ: Urinary Bladder Wall; for radiation dose estimate, Effective Dose: human: Effective Dose; for radiation dose estimate, Total Body: human: Total Body
Protocol: The AUC of drug metabolisms was calculated from the biodistribution (Bio-D) data and imported into the OLINDA software to generate doses of radiation absorbed by all the organs.

[1] = Pharmacokinetics in blood of normal mice after single tail-vein injection; type: in vivo; conditions: for Blood % ID/g: normal mice, individual animals 1-4
Protocol: Through single tail-vein injections into mice, the pharmacokinetics of ^68Ga-v (Example 9) and PSMA-617 in blood was studied.
Each mouse was dosed at 50 μCi/100 μL, and blood samples were taken from the orbit 0.083, 0.25, 0.5, 1, 2, and 4 h post-dose (4 animals per time point). The blood samples were collected in pre-weighed sample tubes. The tubes were weighed and the weight of the blood samples was recorded. Then radioactivity counting was performed using a γ-counter. Meanwhile, a test sample was accurately diluted 100-fold, and 0.1 mL of the dilution was added to a counting tube and used as standard 1% ID (i.e., one percent of the injected dose). The radioactivity counts of the 1% ID standard and the biological samples were measured simultaneously on a γ-counter. The data on blood were expressed as the percentage of the radioactivity counts per gram of blood to the total injected dose (radioactivity counts) (% ID/g). Pharmacokinetic parameters were calculated from blood drug concentration data.

IC50 (rhPSMA): 2.42 nM
SMILES: NCc1ccc(C(=O)Nc2cccc(C(=O)NCCCC[C@H](NC(=O)N[C@@H](CCC(=O)O)C(=O)O)C(=O)O)n2)cc1

SMILES: O=C([O-])CN1CCN(CC(=O)[O-])CCN(CC(=O)NCC2CCC(C(=O)N[C@@H](Cc3ccc4ccccc4c3)C(=O)NCCCC[C@H](NC(=O)N[C@@H](CCC(=O)O)C(=O)O)C(=O)O)CC2)CCN(CC(=O)[O-])CC1.[177Lu+3] (some centres unmarked) [^177Lu-PSMA-617, reference compound]
radiation dose estimate, Adrenals (human organs): 2.43E−02 mSv/MBq | radiation dose estimate, Brain (human organs): 1.38E−01 mSv/MBq | radiation dose estimate, Esophagus (human organs): 3.39E−03 mSv/MBq | radiation dose estimate, Eyes (human organs): 2.74E−03 mSv/MBq | radiation dose estimate, Gallbladder Wall (human organs): 3.58E−03 mSv/MBq | radiation dose estimate, Heart Wall (human organs): 2.41E−02 mSv/MBq | radiation dose estimate, Kidneys (human organs): 1.47E+00 mSv/MBq | radiation dose estimate, Left colon (human organs): 4.60E−03 mSv/MBq | radiation dose estimate, Liver (human organs): 3.15E−02 mSv/MBq | radiation dose estimate, Lungs (human organs): 1.12E−01 mSv/MBq | radiation dose estimate, Osteogenic Cells (human organs): 5.58E−01 mSv/MBq | radiation dose estimate, Pancreas (human organs): 4.36E−03 mSv/MBq | radiation dose estimate, Prostate (human organs): 1.23E−03 mSv/MBq | radiation dose estimate, Rectum (human organs): 1.49E−03 mSv/MBq | radiation dose estimate, Red Marrow (human organs): 3.80E−03 mSv/MBq | radiation dose estimate, Right colon (human organs): 2.74E−03 mSv/MBq | radiation dose estimate, Salivary Glands (human organs): 2.18E−03 mSv/MBq | radiation dose estimate, Small Intestine (human organs): 4.48E−02 mSv/MBq | radiation dose estimate, Spleen (human organs): 9.86E−01 mSv/MBq | radiation dose estimate, Stomach Wall (human organs): 8.22E−03 mSv/MBq | radiation dose estimate, Testes (human organs): 5.04E−04 mSv/MBq | radiation dose estimate, Thymus (human organs): 2.04E−03 mSv/MBq | radiation dose estimate, Thyroid (human organs): 1.83E−03 mSv/MBq | radiation dose estimate, Urinary Bladder Wall (human organs): 7.53E−04 mSv/MBq | radiation dose estimate, Effective Dose (human organs): 4.74E−02 mSv/MBq | radiation dose estimate, Total Body (human organs): 2.91E−02 mSv/MBq

SMILES: O=C([O-])CN1CCN(CC(=O)[O-])CCN(CC(=O)NCC2CCC(C(=O)N[C@@H](Cc3ccc4ccccc4c3)C(=O)NCCCC[C@H](NC(=O)N[C@@H](CCC(=O)O)C(=O)O)C(=O)O)CC2)CCN(CC(=O)[O-])CC1.[68Ga+3] (some centres unmarked) [^68Ga-PSMA-617, reference compound]
radiation dose estimate, Adrenals (human organs): 7.49E−02 mSv/MBq | radiation dose estimate, Brain (human organs): 7.80E−02 mSv/MBq | radiation dose estimate, Esophagus (human organs): 1.79E−02 mSv/MBq | radiation dose estimate, Eyes (human organs): 1.25E−02 mSv/MBq | radiation dose estimate, Gallbladder Wall (human organs): 3.22E−02 mSv/MBq | radiation dose estimate, Heart Wall (human organs): 3.93E−02 mSv/MBq | radiation dose estimate, Kidneys (human organs): 5.47E−01 mSv/MBq | radiation dose estimate, Left colon (human organs): 1.63E−02 mSv/MBq | radiation dose estimate, Liver (human organs): 1.75E−01 mSv/MBq | radiation dose estimate, Lungs (human organs): 1.21E−01 mSv/MBq | radiation dose estimate, Osteogenic Cells (human organs): 3.14E−01 mSv/MBq | radiation dose estimate, Pancreas (human organs): 1.86E−02 mSv/MBq | radiation dose estimate, Prostate (human organs): 7.73E−03 mSv/MBq | radiation dose estimate, Rectum (human organs): 1.83E−01 mSv/MBq | radiation dose estimate, Red Marrow (human organs): 2.11E−02 mSv/MBq | radiation dose estimate, Right colon (human organs): 1.34E−02 mSv/MBq | radiation dose estimate, Salivary Glands (human organs): 9.39E−03 mSv/MBq | radiation dose estimate, Small Intestine (human organs): 1.00E−01 mSv/MBq | radiation dose estimate, Spleen (human organs): 1.79E−01 mSv/MBq | radiation dose estimate, Stomach Wall (human organs): 1.91E−02 mSv/MBq | radiation dose estimate, Testes (human organs): 3.69E−03 mSv/MBq | radiation dose estimate, Thymus (human organs): 1.16E−02 mSv/MBq | radiation dose estimate, Thyroid (human organs): 1.08E−02 mSv/MBq | radiation dose estimate, Urinary Bladder Wall (human organs): 5.54E−03 mSv/MBq | radiation dose estimate, Effective Dose (human organs): 4.68E−02 mSv/MBq | radiation dose estimate, Total Body (human organs): 3.61E−02 mSv/MBq | Blood % ID/g ([1]; 0.083 h post-dose): 4.22 % ID/g (2×) and 4.29 % ID/g and 3.66 % ID/g | content of the radioactive substance in the blood ([1]; 0.25 h after the injections, mean of n=4): 2.27±0.44 % ID/g | Blood % ID/g ([1]; 0.25 h post-dose): 2.12 % ID/g and 2.53 % ID/g and 2.71 % ID/g and 1.73 % ID/g | Blood % ID/g ([1]; 0.5 h post-dose): 0.55 % ID/g (2×) and 0.84 % ID/g and 0.86 % ID/g | Blood % ID/g ([1]; 1 h post-dose): 0.14 % ID/g and 0.16 % ID/g and 0.10 % ID/g and 0.13 % ID/g | Blood % ID/g ([1]; 2 h post-dose): 0.04 % ID/g and 0.07 % ID/g and 0.10 % ID/g and 0.13 % ID/g | Blood % ID/g ([1]; 4 h post-dose): 0.29 % ID/g and 0.10 % ID/g and 0.09 % ID/g | half-life in the blood ([1]; blood of normal mice): 13.2 min | AUCINF_obs ([1]; blood of normal mice, 0-4 h): 1.65 ± 0.13 h* % ID/g | AUClast ([1]; blood of normal mice, 0-4 h): 1.66 ± 0.14 h* % ID/g | Cl_obs ([1]; blood of normal mice, 0-4 h): 12.10 ± 1.0 μCi/h* % ID/g | Cmax ([1]; blood of normal mice, 0-4 h): 4.10 ± 0.29 % ID/g | MRTlast ([1]; blood of normal mice, 0-4 h): 19.8 ± 3 min | Vz_obs ([1]; blood of normal mice, 0-4 h): 4.06 ± 1.39 μCi/% ID/g | t1/2 ([1]; blood of normal mice, 0-4 h): 13.2 min and 13.2 ± 1.2 min
